Experimental data taken from ChEMBL document CHEMBL1201862, “PubChem BioAssay data set” (2004).
Activity calls are given as the source filed them.

Tests used:
[1] = microbe, parasite or virus in culture; type: functional; details: Mycobacterium tuberculosis
[2] = A549 cell cytotoxicity, dose response, cytotoxicity control, plate reader, cherry-pick, antagonist series (AID 743412); type: functional, cell-based
[3] = HepG2 cell cytotoxicity, dose response, cytotoxicity control, plate reader, cherry-pick, antagonist series (AID 743416); type: functional, cell-based
[4] = LGR2 antagonists, dose response, cell-based, HEK293, CRE-luciferase reporter, cherry pick, set 2 (AID 743343); type: functional;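 further: transfected cells were stimulated with diluted bursicon conditioned medium after compound addition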
[5] = MC4R antagonists, dose response, counter-screen for LGR2 antagonist project, cell-based, plate reader, cherry pick (AID 743444); type: functional;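 further: transfected HEK 293 cells stimulated with alpha-MSH peptide; potency of inhibitors of the alpha-MSH evoked signal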
[6] = HEK293 cell cytotoxicity, dose response, cytotoxicity control, plate reader, cherry-picked samples (AID 743446); type: functional, cell-based
[7] = molecular target: T1, Leucine aminopeptidase (Plasmodium falciparum 3D7, UniProt Q8IL11); assay: P. falciparum M17LAP inhibitors, primary screen, biochemical, fluorogenic H-Leu-NHMec substrate, 1536-well (AID 1619); type: functional
T1 sequence (Q8IL11 whole entry): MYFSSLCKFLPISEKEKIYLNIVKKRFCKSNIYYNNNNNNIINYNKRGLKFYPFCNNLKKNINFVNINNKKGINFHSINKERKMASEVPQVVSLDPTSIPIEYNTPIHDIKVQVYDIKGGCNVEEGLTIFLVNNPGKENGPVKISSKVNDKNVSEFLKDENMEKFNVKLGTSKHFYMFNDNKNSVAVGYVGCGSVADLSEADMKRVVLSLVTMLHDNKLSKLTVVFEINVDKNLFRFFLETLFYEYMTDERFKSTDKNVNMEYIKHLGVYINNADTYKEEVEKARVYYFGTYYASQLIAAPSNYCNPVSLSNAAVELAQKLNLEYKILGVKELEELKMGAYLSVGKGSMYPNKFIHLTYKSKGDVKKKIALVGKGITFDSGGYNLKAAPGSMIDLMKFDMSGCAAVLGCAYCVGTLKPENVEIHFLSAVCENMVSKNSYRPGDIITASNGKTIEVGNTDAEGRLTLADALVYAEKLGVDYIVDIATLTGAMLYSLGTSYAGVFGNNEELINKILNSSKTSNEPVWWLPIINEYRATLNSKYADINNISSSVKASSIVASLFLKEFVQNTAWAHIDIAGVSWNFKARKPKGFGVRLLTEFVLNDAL

[8] = molecular target: T2, Calpain-2 catalytic subunit (Sus scrofa, UniProt P43367); assay: pig calpain II inhibitor potency, dose response, biochemical, fluorogenic peptide substrate (AID 1420); type: functional
T2 sequence (P43367 whole entry): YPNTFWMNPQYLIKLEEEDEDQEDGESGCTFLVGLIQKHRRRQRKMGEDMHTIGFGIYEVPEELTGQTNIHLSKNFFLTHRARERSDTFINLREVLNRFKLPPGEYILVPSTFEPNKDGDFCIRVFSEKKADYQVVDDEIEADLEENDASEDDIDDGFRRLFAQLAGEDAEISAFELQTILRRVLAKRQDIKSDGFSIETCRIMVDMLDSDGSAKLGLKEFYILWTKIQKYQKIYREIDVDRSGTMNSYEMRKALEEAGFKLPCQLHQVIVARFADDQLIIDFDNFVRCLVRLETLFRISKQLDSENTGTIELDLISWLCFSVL

[9] = system: Vero; assay: host cell cytotoxicity of antiviral hits, dose response, cytotoxicity control for West Nile virus antiviral project, secondary assay (AID 1650); type: functional; details: Chlorocebus sabaeus
[10] = molecular target: Eukaryotic translation initiation factor 4E (Mus musculus, UniProt P63073); assay: eIF4E–eIF4G protein interaction inhibitors, dose response, biochemical, TR-FRET (AID 855); type: functional;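 further: potency for disrupting eIF4E binding to eIF4GI seen as loss of FRET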
Chain of Eukaryotic translation initiation factor 4E (P63073 whole entry): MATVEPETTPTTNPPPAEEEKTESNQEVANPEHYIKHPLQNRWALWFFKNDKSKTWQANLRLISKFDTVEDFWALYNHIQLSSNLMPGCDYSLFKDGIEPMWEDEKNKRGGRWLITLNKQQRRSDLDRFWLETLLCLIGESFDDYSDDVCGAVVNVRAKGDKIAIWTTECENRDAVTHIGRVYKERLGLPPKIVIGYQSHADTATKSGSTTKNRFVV

[11] = system: Vero; assay: cells; type: functional; details: Chlorocebus sabaeus
[12] = system: BJ; assay: cytotoxicity toward BJ-TERT fibroblasts, dose response, cell-based, RAS-independent, luminescence (AID 1933); type: functional; details: Homo sapiens
[13] = system: BJ; assay: cells; type: functional, cell-based; details: Homo sapiens
[14] = system: BJ; assay: cytotoxicity toward BJ-TERT-LT-ST fibroblasts, dose response, cell-based, RAS-independent, luminescence (AID 1935); type: functional; details: Homo sapiens;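 further: BJ fibroblasts immortalized with TERT plus LT and ST oncogenes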
[15] = cytotoxicity toward DRD oncogenic fibroblasts, dose response, cell-based, non-viral oncogenic, luminescence (AID 1934); type: functional; details: Homo sapiens
[16] = system: BJ; assay: cytotoxicity toward Ras-transformed BJeLR fibroblasts, dose response, cell-based, alamar blue fluorescence, cherrypicked samples (AID 2631); type: functional; details: Homo sapiens;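 further: confirmatory dose-response assay in RAS-dependent BJ fibroblasts engineered with TERT, LT and ST, with cytotoxicity read by fluorescence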
[17] = molecular target: T3, Polyadenylate-binding protein 1 (Homo sapiens, UniProt P11940); assay: PABP1 MLLE–PAM2 interaction inhibitors, dose response, miRNA deadenylation inhibitor project, biochemical, fluorescence polarization, Cy5-PAM2 peptide, secondary (AID 602260); type: functional; details: read-out: IC50_Mean
T3 sequence (P11940 whole entry): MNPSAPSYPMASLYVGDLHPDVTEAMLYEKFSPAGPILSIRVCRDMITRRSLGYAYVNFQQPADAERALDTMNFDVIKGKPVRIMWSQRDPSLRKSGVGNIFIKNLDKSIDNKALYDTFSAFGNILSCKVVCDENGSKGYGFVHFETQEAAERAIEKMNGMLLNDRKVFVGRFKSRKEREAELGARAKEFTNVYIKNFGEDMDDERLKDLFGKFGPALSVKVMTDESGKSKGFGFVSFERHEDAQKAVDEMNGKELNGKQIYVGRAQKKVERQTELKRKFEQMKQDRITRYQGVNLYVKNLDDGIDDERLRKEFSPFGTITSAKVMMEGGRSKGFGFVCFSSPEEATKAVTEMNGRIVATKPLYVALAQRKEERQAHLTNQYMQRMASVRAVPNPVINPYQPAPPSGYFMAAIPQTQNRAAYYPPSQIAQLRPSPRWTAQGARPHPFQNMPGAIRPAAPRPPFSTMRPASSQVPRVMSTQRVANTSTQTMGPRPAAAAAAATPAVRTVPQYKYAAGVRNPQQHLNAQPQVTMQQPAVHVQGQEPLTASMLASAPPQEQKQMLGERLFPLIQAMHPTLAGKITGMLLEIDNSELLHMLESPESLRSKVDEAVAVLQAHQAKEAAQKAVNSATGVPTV

[18] = molecular target: T3, Polyadenylate-binding protein 1; assay: PABP1 MLLE–PAM2 binding inhibitor potency, dose response, biochemical, fluorescence polarization, FITC-PAM2 peptide (AID 602259); type: functional; details: read-out: IC50_Mean
[19] = molecular target: T4, Methionyl-tRNA synthetase, putative (Trypanosoma brucei brucei, UniProt Q38C91); type: functional, Trypanosoma brucei brucei strain 927/4 GUTat10.1
T4 sequence (Q38C91 whole entry): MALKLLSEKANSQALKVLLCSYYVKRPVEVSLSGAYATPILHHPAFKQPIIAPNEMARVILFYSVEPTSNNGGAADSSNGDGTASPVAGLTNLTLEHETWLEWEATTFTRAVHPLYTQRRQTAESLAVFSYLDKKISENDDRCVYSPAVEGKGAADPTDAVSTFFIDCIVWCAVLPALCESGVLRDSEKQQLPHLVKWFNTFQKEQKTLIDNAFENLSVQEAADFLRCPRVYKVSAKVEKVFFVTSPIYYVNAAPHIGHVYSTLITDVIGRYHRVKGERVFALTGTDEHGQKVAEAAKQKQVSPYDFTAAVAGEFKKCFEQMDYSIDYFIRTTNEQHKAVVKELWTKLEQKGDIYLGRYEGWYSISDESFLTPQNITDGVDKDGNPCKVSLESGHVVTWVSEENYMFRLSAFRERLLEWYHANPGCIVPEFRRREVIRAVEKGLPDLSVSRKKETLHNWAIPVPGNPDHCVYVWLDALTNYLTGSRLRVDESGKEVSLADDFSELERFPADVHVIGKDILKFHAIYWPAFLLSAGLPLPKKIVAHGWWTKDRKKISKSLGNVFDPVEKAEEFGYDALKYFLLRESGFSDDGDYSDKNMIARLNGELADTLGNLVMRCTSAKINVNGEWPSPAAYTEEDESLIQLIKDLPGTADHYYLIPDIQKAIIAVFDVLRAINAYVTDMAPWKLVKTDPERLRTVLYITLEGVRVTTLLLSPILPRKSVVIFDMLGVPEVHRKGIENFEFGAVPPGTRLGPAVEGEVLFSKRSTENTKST

[20] = Counterscreen for inhibitors of Trypanosoma brucei methionyl tRNA synthetase (MetRS): Luminescence-based cell-based high throughput dose response assay to identify compounds that are cytotoxic to Jurkat human T lymphocyte cells.; type: functional
[21] = molecular target: T4, Methionyl-tRNA synthetase, putative; type: functional, Trypanosoma brucei brucei strain 927/4 GUTat10.1; remark: listed apart in the source
[22] = molecular target: FAD-linked sulfhydryl oxidase ALR (Homo sapiens, UniProt P55789); assay: inhibitors of human ALR sulfhydryl oxidase, dose response, biochemical, H2O2 detection, luminescence, cherry-pick (AID 493248)
Chain of FAD-linked sulfhydryl oxidase ALR (P55789 whole entry): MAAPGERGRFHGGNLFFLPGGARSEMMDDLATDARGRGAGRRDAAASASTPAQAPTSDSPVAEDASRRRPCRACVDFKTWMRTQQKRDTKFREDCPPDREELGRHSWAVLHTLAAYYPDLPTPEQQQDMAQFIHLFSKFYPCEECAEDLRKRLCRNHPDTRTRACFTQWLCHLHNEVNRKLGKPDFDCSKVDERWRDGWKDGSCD

[23] = cells; type: functional
[24] = cells; type: functional, cell-based
[25] = cells; type: functional, cell-based; remark: listed apart in the source
[26] = HeLa 2N DNA content increase, dose response, cell-based, IC50 (AID 1117349); type: functional
[27] = HeLa 4N DNA content increase, dose response, cell-based, IC50 (AID 1117351); type: functional
[28] = cytotoxicity toward HT-29 cells – cell-based, CellTiter-Glo luminescence, IC50, dose response (AID 1117330); type: functional

O=C(c1ccccc1)c1ccc2c(c1)N=C1CCCC(O)=C1C1c3ccccc3C(=O)N21 (stereo unspecified)
CC50 [1]: 28.9 µM (active)

C[C@H]1CN([C@@H](C)CO)C(=O)Cc2cc(NS(=O)(=O)c3ccc(Cl)cc3)ccc2O[C@@H]1CN(C)Cc1ccccc1
AC50 [2]: 13.1 µM (active)
AC50 [3]: 16.9 µM (active)
AC50 [4]: 31.5 µM (active)
AC50 [5]: 38.7 µM (active)
AC50 [6]: 29.6 µM (active)

O=C(O)CCc1nnc(SCC(=O)Nc2cccc(C(F)(F)F)c2)nc1O
IC50 [7]: 6.64 µM (active)

COC(=O)c1ccc2nc(NC(=O)C(C)(C)C)sc2c1
IC50 [8]: 24.1 µM (not active)
AC50 [3]: > 52 µM (inactive)
AC50 [4]: 5.77 µM (active)
AC50 [5]: 5.69 µM (active)
AC50 [6]: > 52 µM (inactive)

CCCN(CCC)CCCNC(=O)c1cc2cc3ccc(Cl)cc3nc2o1
CC50 [9]: > 100 µM (active)

Cc1ccc(/C=C/C(O)=C2/C(=O)N(C)C3(C)CC2c2ccccc2O3)cc1 (stereo unspecified)
CC50 [9]: 41 µM (active)
IC50 [10]: > 64 µM (inactive)
CC50 [11]: 15.4 µM (active)

Cc1ccccc1Cn1ccc(NC(=O)c2nn(C)cc2[N+](=O)[O-])n1
CC50 [9]: 12.1 µM (active)

CCc1ccc(NC(=O)[C@H](Cc2c[nH]c3ccccc23)NC(=O)[C@@H]2Cc3ccccc3CN2)cc1
EC50 [12]: > 150 µM (not active)
EC50 [13]: 10.8 µM (active)
EC50 [14]: > 150 µM (not active)
EC50 [15]: > 150 µM (inconclusive)
EC50 [16]: > 133 µM (inactive)

O=C(CSc1n[nH]c2c3ccccc3nc-2n1)Nc1ccc2c(c1)OCO2
IC50 [17]: > 66 µM (inactive)
IC50 [18]: > 66 µM (inactive)
IC50 [19]: 4.39 µM (active)
IC50 [20]: 83.3 µM (inactive)
IC50 [21]: 1.57 µM (active)

O=C1CCCN1CCCNc1ncnc2c1[nH]c1ccc(Cl)cc12
AC50 [22]: 0.943 µM (active)
IC50 [19]: 8.28 µM (active)
IC50 [20]: 83.3 µM (inactive)
IC50 [21]: 4.36 µM (active)

O=C(CCN1C(=O)/C(=C/c2ccccc2Cl)SC1=S)N1CCOCC1
CC50 [9]: 67.3 µM (active)

Oc1ccccc1-c1nnc(COc2ccccc2)o1
CC50 [1]: > 40 µM (active)
IC50 [23]: 8.84 µM (active)

O=C(Cn1cnc([N+](=O)[O-])c1)NCCc1ccccc1
IC50 [24]: > 29.9 µM (inactive)
EC50 [25]: > 29.9 µM (inactive)

Cc1ccc(NC(=O)CN2C(=O)CN=C(c3ccccc3)c3cc(Cl)ccc32)cc1
IC50 [19]: 6.78 µM (active)
IC50 [20]: 6.39 µM (active)
IC50 [21]: 2.82 µM (active)

Clc1cccc(N/N=C(\Cc2nc3ccccc3[nH]2)c2ccccc2)c1
IC50 [19]: 4.59 µM (active)
IC50 [20]: 62.2 µM (inactive)
IC50 [21]: 3.09 µM (active)

NC(=O)c1cccc(-c2cc(Nc3ccc(OC(F)(F)F)cc3)ncn2)c1
CC50 [1]: > 40 µM (active)

CC(C)=CCNc1ncnc2c1ncn2[C@@H]1O[C@H](CO)[C@@H](O)[C@H]1O [RIBOPRINE]
IC50 [26]: > 10 µM (inactive)
IC50 [27]: > 10 µM (inactive)
IC50 [28]: > 20 µM (inactive)
